The text below walks through data of patent EP4596546A1, “SULFONAMIDE COMPOUND, AND HARMFUL-ARTHROPOD EXTERMINATION COMPOSITION CONTAINING SAME” (priority 2022, dated 2024).

What all share (type): in vivo
The test system of assay [1] is common house mosquito (Culex pipiens pallens). The assay can be described thus: Test Method 12: last instar larvae of common house mosquito released into diluted solution. To be noted: 24 h, after 1 day. The protocol: (§1) Next, Test Examples are used to show effects of the Present compounds on harmful arthropods. In the following Test Examples, the tests were carried out at 25°C.
Each test compound is formulated to a test formulation according to a similar method to that described in the Formulation Example 1, and water is added in preparing for a diluted solution containing a prescribed concentration of the test compound.
Into the diluted solution, 30 last instar larvae of common house mosquito (Culex pipiens pallens) are released, and after 1 day, the state of the house mosquito larvae is examined, and the mortality is calculated by the following equation. [formula]

Assay [2] concerns diamondback moth (Plutella xylostella). As to the kind of experiment: Test Method 4: sprayed cabbage, cut aerial part, second-instar larvae of diamondback moth. As to conditions: 120 h, spray 20 mL/seedling, after 5 days. The protocol:
(§2) Next, Test Examples are used to show effects of the Present compounds on harmful arthropods. In the following Test Examples, the tests were carried out at 25°C. Each test compound is made to a formulation according to a similar method to that described in the Formulation Example 1, and thereto is added water containing 0.03 v/v% of Shindain (registered trademark) to prepare a diluted solution containing a prescribed concentration of the test compound. Cabbage (Brassicae oleracea) seedling (on the developmental stage of the second to third true leaf) is planted in a container, and the diluted solutions are sprayed to the seedling at a ratio of 20 mL/seedling. Thereafter, the aerial part of the seedling is cut out and then is installed into a container in which a filter paper is placed at the bottom of the container. Five of second-instar larvae of diamondback moth (Plutella xylostella) are released into the container. After 5 days, the number of the surviving insects is counted, and the mortality of insects is calculated by the following equation. [formula]

Assay [3] concerns housefly (Musca domestica). As to the kind of experiment: Test Method 8: coated glass vial contact test, housefly female adults. To be noted: 24 h, 40 mg/m^2 on vial inner face, 1 day. The protocol:
as §1
An acetone solution which is adjusted to 800 ppm of each test compound is poured into a 20 mL glass vial, and the test compound is coated uniformly on inner face of the vial so as to 40 mg/m^2 of the test compound treated, and the vial is then dried.
5 housefly (Musca domestica) female adults are released into the treated vial, and the vial is then covered with lid. After the prescribed time, the state of the housefly is examined, and the mortality is calculated by the following equation. [formula]

For assay [4], the system named is cotton worm (Spodoptera litura). The assay can be described thus: Test Method 9: sprayed cabbage seedling, third-instar larvae of cotton worm (formulation per Formulation Example 5). As to conditions: 144 h, spray 20 mL/seedling, after 6 days. The protocol: as §1
(§3) Each test compound is made to a formulation according to a similar method to that described in the Formulation Example 5, and thereto is added water containing 0.03 v/v% of Shindain (registered trademark) to prepare a diluted solution containing a prescribed concentration of the test compound.
Cabbage (Brassicae oleracea) seedling (on the developmental stage of the third to fourth true leaf) is planted in a container, and the diluted solutions are sprayed to the seedling at a ratio of 20 mL/seedling. Thereafter, ten of third-instar larvae of cotton worm (Spodoptera litura) are released. After 6 days, the number of the surviving insects is counted, and the mortality of insects is calculated by the following equation. [formula]

Assay [5] shares this test system. As to the kind of experiment: Test Method 3: sprayed cabbage, cut aerial part, second-instar larvae of cotton worm. To be noted: 120 h, spray 20 mL/seedling, after 5 days. The protocol:
as §2, with “cotton worm (Spodoptera litura)” for “diamondback moth (Plutella xylostella)”

Assay [6] deals with diamondback moth (Plutella xylostella). The assay can be described thus: Test Method 10: sprayed cabbage seedling, third-instar larvae of diamondback moth (formulation per Formulation Example 5). As to conditions: 120 h, spray 20 mL/seedling, after 5 days. The protocol:
as §1, §3
Cabbage (Brassicae oleracea) seedling (on the developmental stage of the third to fourth true leaf) is planted in a container, and the diluted solutions are sprayed to the seedling at a ratio of 20 mL/seedling. Thereafter, ten of third-instar larvae of diamondback moth (Plutella xylostella) are released. After 5 days, the number of the surviving insects is counted, and the mortality of insects is calculated by the following equation. [formula]

Assay [7] relates to Western corn rootworm (Diabrotica virgifera virgifera). The assay can be described thus: whole plant or invertebrate. As to conditions: 120 h. The protocol:
as §1
Each 1 mg of the test compounds is dissolved in 50 µL of a mixed solution consisting of 5% of polyoxyethylene sorbitan mono-cocoate and 95% of acetone by volume ratio. Thereto is added water containing 0.03% by volume of Shindain (registered trademark) to prepare a diluted solution containing a prescribed concentration of the test compound.
A young seedling of corn (Zea mays) is immersed into the diluted solution for 30 seconds. Thereafter, two seedlings are installed in a plastic petri dish (90 mm […]), and 10 of second-instar larvae of Western corn rootworm (Diabrotica virgifera virgifera) are released into the dish. After 5 days, the number of the dead insects is counted, and the mortality of insects is calculated by the following equation. Mortality (%) = (Numberofdeadinsects/10) × 100 [formula]

In assay [8] the test system is Haemaphysalis longicornis. As to the kind of experiment: Test Method 7: coated glass vial contact test, Haemaphysalis longicornis nymphs. As to conditions: 48 h, 100 mg/m^2 on vial inner face, 2 days.
Experimental: An acetone solution which is adjusted to 2000 ppm of each test compound is poured into a 20 mL glass vial, and the test compound is coated uniformly on inner face of the vial so as to 100 mg/m^2 of the test compound treated, and the vial is then dried.
5 Haemaphysalis longicornis nymphs are released into the treated vial, and the vial is then covered with lid. After the prescribed time, the state of the Haemaphysalis longicornis is examined, and the mortality is calculated by the following equation.
The test system of assay [9] is German cockroach (Blattella germanica). As to the kind of experiment: Test Method 6: coated glass vial contact test, German cockroach male adults. To be noted: 72 h, 40 mg/m^2 on vial inner face, 3 days. The protocol:
as §1
An acetone solution which is adjusted to 800 ppm of each test compound is poured into a 50 mL glass vial, and the test compound is coated uniformly on inner face of the vial so as to 40 mg/m^2 of the test compound treated, and the vial is then dried.
5 German cockroach (Blattella germanica) male adults are released into the treated vial, and the vial is then covered with lid. After the prescribed time, the state of the German cockroach is examined, and the mortality is calculated by the following equation. [formula]

The structures appear in SMILES notation. Where only a bound is given, the exact number is not on record here.

`CNS(=O)(=O)c1c(-c2ccc(OCC(F)(F)C(F)(F)F)n(C)c2=O)nc2ccc(C(F)(F)F)cn12` [compound 1]: the mortality at 3.5 ppm in assay [1] is greater than 90%. The mortality at 500 ppm in assay [2] and in assay [5] was no less than 80% each time. Besides, the mortality at 40 mg/m2, 40 mg/m2 in assay [3] is no less than 80%. The mortality at 200 ppm in [4] and in assay [6] was no less than 80% throughout. This compound gave a mortality at 50 ppm in assay [6] of no less than 80%.
On to `CCNS(=O)(=O)c1c(-c2ccc(OCC(F)(F)C(F)(F)F)n(C)c2=O)nc2ccc(Br)cn12` [compound 2], for which the mortality at 500 ppm in [2] and in [5] was no less than 80% each time. For the same compound, the mortality at 200 ppm in assay [4], in assay [7] and in [6] was no less than 80% each time. For the same compound, the mortality at 50 ppm in assay [6] was no less than 80%.
On to `CN(C)S(=O)(=O)c1c(-c2ccc(OCC(F)(F)C(F)(F)F)n(C)c2=O)nc2ccc(Br)cn12` [compound 3], for which the mortality at 500 ppm in assay [2] and in [5] was no less than 80% throughout. Further, the mortality at 200 ppm in [4], in assay [7] and in assay [6] was no less than 80% in each case. In assay [6], this compound returned a mortality at 50 ppm of no less than 80%.
Consider `CNS(=O)(=O)c1c(-c2ccc(OCC(F)(F)C(F)(F)F)n(C)c2=O)nc2ccc(I)cn12` [compound 4], for which the mortality at 3.5 ppm in assay [1] was greater than 90%. Besides, the mortality at 100 mg/m2, 100 mg/m2 in assay [8] was no less than 80%. Moreover, the mortality at 500 ppm in [2] and in assay [5] was no less than 80% in each case. In addition, in assay [3], the mortality at 40 mg/m2, 40 mg/m2 was no less than 80%. Besides, the mortality at 200 ppm in [4], in assay [7] and in assay [6] was no less than 80% each time. The compound further displayed a mortality at 50 ppm in assay [6] of no less than 80%.
Turning to `Cn1c(OCC(F)(F)C(F)(F)F)ncc(-c2nc3ccc(Br)cn3c2S(=O)(=O)NC2CC2)c1=O` [compound 5], the mortality at 3.5 ppm in assay [1] is greater than 90%. In addition, the mortality at 500 ppm in [2] and in assay [5] was no less than 80% throughout. The mortality at 40 mg/m2, 40 mg/m2 in assay [3] and in [9] was no less than 80% in each case. In addition, the mortality at 200 ppm in [4] and in [6] was no less than 80% each time. The compound also gave a mortality at 50 ppm in [6] of no less than 80%.
As to `Cn1c(OCC(F)(F)C(F)(F)F)ncc(-c2nc3ccc(Br)cn3c2S(N)(=O)=O)c1=O` [compound 6], the mortality at 500 ppm in [2] and in assay [5] was no less than 80% in each case. The mortality at 200 ppm in [4], in [7] and in assay [6] was no less than 80% in each case. The same compound yielded a mortality at 50 ppm in assay [6] of no less than 80%.
Regarding `CNS(=O)(=O)c1c(-c2cnc(OCC(F)(F)C(F)(F)F)n(C)c2=O)nc2ccc(I)cn12` [compound 7], the mortality at 3.5 ppm in [1] is greater than 90%. Also, the mortality at 500 ppm in assay [2] and in assay [5] was no less than 80% throughout. Further, the mortality at 40 mg/m2, 40 mg/m2 in assay [3] was no less than 80%. Also, the mortality at 200 ppm in assay [4], in assay [7] and in [6] was no less than 80% in each case. The compound further returned a mortality at 50 ppm in [6] of no less than 80%.
In the case of `CNS(=O)(=O)c1c(-c2cnc(OCC(F)(F)C(F)(F)F)n(C)c2=O)nc2cc(I)ccn12` [compound 8], the mortality at 3.5 ppm in [1] is greater than 90%. The mortality at 500 ppm in assay [2] and in assay [5] was no less than 80% throughout. Moreover, the mortality at 40 mg/m2, 40 mg/m2 in assay [3] and in [9] was no less than 80% throughout. Also, the mortality at 200 ppm in [4], in assay [7] and in assay [6] was no less than 80% throughout. The same compound displayed a mortality at 50 ppm in [6] of no less than 80%.
Take `CNS(=O)(=O)c1c(-c2cnc(OCC(F)(F)C(F)(F)F)n(C)c2=O)nc2ccc(C(F)(F)F)cn12` [compound 9]: in assay [1], the mortality at 3.5 ppm is greater than 90%. Further, the mortality at 500 ppm in assay [2] and in [5] was no less than 80% in each case. Moreover, the mortality at 200 ppm in assay [4], in assay [7] and in assay [6] was no less than 80% throughout. The same compound registered a mortality at 50 ppm in assay [6] of no less than 80%.
As for `CNS(=O)(=O)c1c(-c2cnc(OCC(F)(F)C(F)(F)F)n(C)c2=O)nc2cc(C(F)(F)F)ccn12` [compound 10], in assay [1], the mortality at 3.5 ppm was greater than 90%. The mortality at 500 ppm in assay [2] and in [5] was no less than 80% in each case. The mortality at 40 mg/m2, 40 mg/m2 in [3] and in assay [9] was no less than 80% in each case. The mortality at 200 ppm in assay [4], in assay [7] and in [6] was no less than 80% throughout. For the same compound, the mortality at 50 ppm in [6] was no less than 80%.
In the case of `CN(C)S(=O)(=O)c1c(-n2cnc3ccc(OC(F)(F)F)cc3c2=O)nc2ccc(I)cn12` [compound 11], the mortality at 500 ppm in [2] and in assay [5] was no less than 80% each time. Besides, the mortality at 200 ppm in assay [4], in assay [7] and in assay [6] was no less than 80% throughout. In assay [6], this compound gave a mortality at 50 ppm of no less than 80%.
As to `CNS(=O)(=O)c1c(-n2cnc3ccc(OC(F)(F)F)cc3c2=O)nc2ccc(I)cn12` [compound 12], the mortality at 500 ppm in [2] and in [5] was no less than 80% throughout. Moreover, the mortality at 200 ppm in [4], in assay [7] and in assay [6] was no less than 80% each time. In addition, the mortality at 50 ppm in assay [6] was no less than 80%.
